Assays:
[1] = background; cited from earlier work
[2] = Hydrated lipid systems (F02): transparency check method for maximum solubility / encapsulation; type: physicochemical
From the text: Briefly, 1 mm thick transparent glass slide with a small well was filled with corresponding formulation and its ability to see-through was checked, as shown by photographs referenced in Table 2.
Briefly, 1 mm thick transparent glass slide with a small well was filled with corresponding formulation and its ability to see-through was checked, as shown by photographs referenced in Table 3.

[3] = background; cited from earlier work; remark: listed apart in the source
[4] = background; cited from earlier work; remark: listed apart in the source
[5] = Centrifugation (200 rpm for 5 min) of F01 encapsulation mixtures; type: physicochemical; settings: encapsulated mixture in MO or DU, visibly homogeneous at room temperature before
Experimental: It was in fact possible to add up to 126 mg of CuASP in 1 g of MO (as per F01-CuASP-MO-E) and up to about 130 mg in 1 g of DU (as per F01-CuASP-DU-E) (FIG. 4). […] With mere mixing by spatula the formulation was again homogeneous thereby encapsulating excess CuASP in the lipid phase.
With mere mixing by spatula the formulation was again homogeneous thereby encapsulating excess CuSL in the lipid phase.

[6] = Maximum copper complex content (solubility / encapsulation) of lipid formulations; type: physicochemical
Experimental: Spatula or similar tools were used to blend the constituents until homogeneous. • Mixtures were heated (to 40-60° C.) using block heater.

[7] = Solubility limit in cubosomes solution (F03 nanostructured dispersions), sedimentation; type: physicochemical
From the text: The numbers in mg indicate CuASP content in 10 g cubosomes solution (formed of 0.5 g lipid+9.5 g of 0.5% F127 solution in water).

In the case of `CC(=O)Oc1ccccc1C(=O)[O-].CC(=O)Oc1ccccc1C(=O)[O-].CC(=O)Oc1ccccc1C(=O)[O-].CC(=O)Oc1ccccc1C(=O)[O-].[Cu+2].[Cu+2]` [CuASP, Copper (II) Aspirinate], the solubility in water [1] is given as “poorly soluble in water”, the “amount encapsulated in DU cubic phase” value ([2]; in 1.25 g cubic phase) is given as 400 mg and the “amount encapsulated in DU cubic phase per g of lipid” value ([2]; viscous cubic phase in presence of water) is given as “About 533 mg per g of lipid”. The “irritancy to digestive track compared to aspirin” value [3] was “less irritant”, the “potency as an anti-inflammatory agent compared to aspirin” value [4] was “more potent” and the sedimentation after centrifugation [5] was “some part of the powder sedimented”. The solubility in lipids ([6]; non-aqueous lipids (MO, DU), F01) was 1 mg/g, the “amount possible to add (encapsulation) in 1 g of DU” value ([6]; non-aqueous, in 1 g of DU (F01-...-DU-E)) was “up to 130 mg” and the “amount possible to add (encapsulation) in 1 g of MO” value ([6]; non-aqueous, in 1 g of MO (F01-...-MO-E)) was “up to 126 mg”. The “solubility limit in cubosomes solution per g of lipid” value ([7]; 10 g cubosomes (0.5 g lipid + 9.5 g of 0.5% F127 solution)) was 50 mg/g of lipid and the “content that was sedimented in cubosomes solution” value ([7]; in 10 g cubosomes (0.5 g lipid + 9.5 g of 0.5% F127 solution in water)) was 26 mg.
